For data set [1], the target named is T1, human tyrosinase (hTYR) (Homo sapiens, UniProt P14679).
T1 construct: The intramelanosomal domain of hTYR was expressed and purified; made in house
T1 sequence (P14679 19-476 limits assumed): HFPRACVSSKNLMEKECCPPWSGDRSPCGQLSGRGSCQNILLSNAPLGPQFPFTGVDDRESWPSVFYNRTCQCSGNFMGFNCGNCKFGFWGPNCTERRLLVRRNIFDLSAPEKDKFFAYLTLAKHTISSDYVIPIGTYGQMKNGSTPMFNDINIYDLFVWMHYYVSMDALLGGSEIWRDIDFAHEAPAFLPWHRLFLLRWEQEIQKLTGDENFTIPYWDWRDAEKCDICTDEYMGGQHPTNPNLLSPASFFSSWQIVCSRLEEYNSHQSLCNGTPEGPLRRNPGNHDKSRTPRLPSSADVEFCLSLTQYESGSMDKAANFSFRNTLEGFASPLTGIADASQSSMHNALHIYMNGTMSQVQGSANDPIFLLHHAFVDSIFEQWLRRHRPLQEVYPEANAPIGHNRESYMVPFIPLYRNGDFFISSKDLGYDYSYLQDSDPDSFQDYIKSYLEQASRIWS
Description: hTYR inhibition assay. Type of data set: biochemical. The text has this: (§1) No. T3824). Kojic acid was employed as a positive standard. The intramelanosomal domain of hTYR was expressed and purified as previously reported in the literature.[46] The reference compound Thiamidol was purchased from BLDpharm (Shanghai, China).

The next data set can be described thus: MTT cell viability. The data set is classed as cell-based. The following applies: human, HaCaT keratinocyte cells. As for the experimental part:
Based on the inhibitory effects on hTYR and antioxidant properties on the ABTS assay, we focused our attention on compounds 2 and 3, which were further characterized as skin protective agents. In more detail, we evaluated their ability to influence the viability of human skin keratinocyte cell line HaCaT at distinct concentrations ranging from 5 to 50 μM (Fig. 6). […] Cell viability remained above 87% in compound 2 for all concentrations tested.
The 3-(4,5-dimethylthiazol-2-yl)-2,5-diphenyltetrazolium bromide (MTT) technique on human skin keratinocyte cell line (HaCaT; CLS-Cell Lines Service, Eppelheim, Germany) was employed to assess cell viability as reported by Pintus et al.[47] The cells were exposed to the compounds at concentrations ranging from […] for a duration of 24 h. Afterward, MTT reagent was added to each well, followed by incubation at 37 °C for 3 h. Following incubation, the MTT solution was removed from the culture plate, and 100 μL of DMSO solvent was added to dissolve the water-insoluble formazan crystals formed in the cells. The absorbance was then measured at 570 nm using a microplate reader (VANTAstar_BMG LABTECH GmbH, Offenburg, Germany).

For the next data set, the system named is HaCaT cells. In words: Intracellular ROS levels (DCFH-DA), H2O2-induced. Type of data set: cell-based, human. Conditions: 5–50 μM, 2 mM H2O2. As for the experimental part: To further confirm their antioxidant capacity, we carried out an antioxidant assay in the skin keratinocyte cell line HaCaT. The levels of ROS were measured before and after exposure to H2O2-induced oxidative stress and after treatment with compounds 2 and 3 at various concentrations (5–50 μM).
Cellular ROS levels were measured using the 2′,7′-dichlorofluorescein diacetate (DCFH-DA) method.[48] HaCat cells were exposed to different concentrations of the test compounds, and after 24 h, cells were incubated with DCFH-DA (10 μM) at 37 °C for 30 min and then treated with 2 mM H2O2. The fluorescence intensity of DCF was immediately measured with a fluorescence plate reader (VANTAstar_BMGLABTECH GmbH, Offenburg, Germany).

The nature of data set [2]: Relative lipophilicity by RP-TLC. Conditions: RP-TLC C18, acetone:water 2:1. Type of data set: physicochemical. As for the experimental part: Based on the consideration that the lipophilicity of an active molecule exerts a relevant role in skin penetration as well as in the process of crossing the cell membrane, we chose to experimentally estimate the relative lipophilicity of the synthesized compounds 1–5. We employed reverse-phase thin layer chromatography (RP-TLC); the retardation coefficients (RFs) were measured from the chromatograms, thus generating the RM values as an estimation of the relative lipophilicity among the homogenous series of the studied compounds 1–5 in comparison with MehT-3. The Experimental procedure (4.3 Lipophilicity) contains a detailed description of the applied methods.
Experimental relative lipophilicity was determined by employing reversed phase TLC on 20 cm × 20 cm plates coated with C18 silica. The eluant was prepared by mixing acetone and water (2 : 1 (v/v)). The studied compounds and reference substances were dissolved in MeOH to obtain the working solution with a concentration of 2.0 mg mL^−1. Then, we activated the plates by heating at 105 °C for 1 h. From each working solution, a volume of 0.2 μL was spotted to the plates. The measurements were repeated three times with distinct disposition of the compounds on the plate, so that RF values represented the mean values obtained in triplicate. The chromatograms were developed at a distance of 10 cm from the origin in ascending TLC chambers at room temperature. Then, the spots of the substances were visualized by means of a UV lamp at 254 nm. Based on the retardation coefficients (RF) we calculated the relative lipophilicity RM values according to the formula RM = log[(1/RF) − 1];[44] higher RM values predict a higher lipophilicity.

Data set [3] can be described thus: ABTS radical scavenging assay. The following applies: read-out: Antioxidant activity EC50 (ABTS). The method, then:
Therefore, we conducted a preliminary assessment of the antioxidant activity of all synthesized target compounds by evaluating their ABTS radical scavenging capacity. The ABTS assay is widely recognized as one of the most reliable methods for measuring antioxidants' ability to neutralize the stable ABTS˙^+ radical cation.
The overall free radical-scavenging capacity of the compounds was evaluated using the ABTS [2,20-azinobis-(3-ethylbenzothiazoline-6-sulfonic acid)] assay according to previously described methods.[45] The method relies on the capacity of antioxidants to scavenge the ABTS˙^+ radical. To generate ABTS˙^+, a 7 mM ABTS solution was mixed with 2.45 mM potassium persulfate in water, and the mixture was incubated in the dark at room temperature for 24 h. Subsequently, 10 μL of sample at varying concentrations was added to 990 μL of the diluted ABTS˙^+ solution. After 1 min of reaction at room temperature, the absorbance was recorded at 734 nm. The reference antioxidant used was 6-hydroxy-2,5,7,8-tetramethylchromane-2-carboxylic acid (Trolox). Antioxidant activity was quantified as EC50, which represents the concentration of compound needed to reduce the initial absorbance by 50%.

The target of data set [4] is Agaricus bisporus tyrosinase (AbTYR). In words: AbTYR inhibition assay. Type of data set: biochemical.
Description: as §1

Details of data set [5]: method as in PMID 36675192. Conditions: positive control; read-out: Antioxidant activity EC50 (ABTS); cited from earlier work.
In data set [6] the test system is Agaricus bisporus tyrosinase (AbTYR). More on the design: method as in PMID 37657271, PMID 36093940. The following applies: cited from earlier work.
Data set [7] concerns the target T1, human tyrosinase (hTYR). Conditions: cited from earlier work.

The structures appear in SMILES notation. Where two headings read alike, the source gives them in different places.

Results on seven compounds are retold here after article PMC12183826, “Structure-based design and evaluation of tyrosinase inhibitors targeting both human and mushroom isozymes” (RSC Medicinal Chemistry, 2025).

Take `O=C(c1ccc(=O)[nH]c1)N1CCN(c2ccc(O)cc2)CC1` [Compound 2, 5-[4-(4-hydroxyphenyl)piperazine-1-carbonyl]pyridin-2(1H)-one]: the IC50 on human tyrosinase (hTYR) [1] came to 7.8 ± 0.8 µM; in [4], 13.2 ± 2.24 µM. The viability at 24 h in the data set “MTT cell viability” (all concentrations tested (5 to 50 μM)) was more than 87%. Further, the “H2O2-induced ROS production” value in the data set with HaCaT cells is on record as “decreased the production of ROS induced by hydrogen peroxide in a dose-dependent manner”. For the same compound, the “RM (relative lipophilicity)” value in [2] is given as −0.60. The half-maximal effective concentration (EC50) in [3] came to 9.5 ± 0.2 µM.
Consider `O=C(O)c1ccccc1C(=O)N1CCN(c2ccc(O)cc2)CC1` [Compound 1, 2-[4-(4-hydroxyphenyl)piperazine-1-carbonyl]benzoic acid], for which the values for the IC50 (against human tyrosinase (hTYR) [1]; in data set [4]) were 15.4 ± 1.2 µM and 40.7 ± 3.19 µM, respectively. The EC50 in [3] was found to be 17.1 ± 0.7 µM.
Take `Cc1c(C)c2c(c(C)c1O)CCC(C)(C(=O)O)O2` (centres unmarked) [Trolox, 6-hydroxy-2,5,7,8-tetramethylchromane-2-carboxylic acid]: the EC50 in data set [5] was 13 ± 1.1 µM.
In the case of `CC(=O)N1CCN(c2ccc(O)cc2)CC1` [Compound 3, 1-[4-(4-hydroxyphenyl)piperazin-1-yl]ethan-1-one], the results for the half-maximal inhibitory concentration (IC50) (on human tyrosinase (hTYR) [1]; in [4]) were 5.3 ± 0.9 µM and 31.8 ± 3.37 µM, respectively. In the data set “MTT cell viability” (50 μM), this compound gave a viability at 24 h, 50 µM of 75%. Moreover, the “H2O2-induced ROS production” value with HaCaT cells is reported as “decreased the production of ROS induced by hydrogen peroxide in a dose-dependent manner”. Also, the EC50 in [3] came to 14 ± 0.9 µM.
Turning to `COc1ccccc1C(=O)N1CCN(c2ccc(O)cc2)CC1` [MehT-3, [4-(4-hydroxyphenyl)piperazin-1-yl](2-methoxyphenyl)methanone], the “Mode of inhibition of AbTYR (kinetic analyses)” value in [6] is “competitive inhibitor”. Besides, the IC50 in data set [6] (reference compound) is 3.52 ± 0.25 µM. In addition, the “RM (relative lipophilicity)” value in data set [2] was −0.17. The “Mode of inhibition of hTYR (kinetic analyses)” value on human tyrosinase (hTYR) [7] is “competitive inhibitor”.
Regarding `CCC(=O)N1CCN(c2ccc(O)cc2)CC1` [Compound 4, 1-[4-(4-hydroxyphenyl)piperazin-1-yl]propan-1-one], the half-inhibitory concentration (IC50) against human tyrosinase (hTYR) [1] came to 24.1 ± 3.3 µM; in data set [4], 8.74 ± 0.36 µM. For the same compound, the EC50 in data set [3] turned out to be 10.8 ± 0.3 µM.
With `CC(=O)NCC(=O)N1CCN(c2ccc(O)cc2)CC1` [Compound 5, N-[2-[4-(4-hydroxyphenyl)piperazin-1-yl]-2-oxoethyl]acetamide], the IC50 against human tyrosinase (hTYR) [1] was found to be 27.2 ± 6.2 µM; in [4], 4 ± 0.25 µM. Further, the “RM (relative lipophilicity)” value in data set [2] is recorded as −0.65. The half-maximal effective concentration (EC50) in [3] came to 10.4 ± 0.1 µM.
